“And” between values parts separate entries of the source, which are not always exact repeats. Identical values can stand only once.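 Grown in 96-well plates, cells were treated for 48 hours with each compound at five concentrations. Insufficient inhibition: endpoint recorded as highest concentration tested. At the TGI there is no net growth.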
Experiments:
Test in all cases: NCI anticancer screen, dose series, 48 h
COLO 205 colon = test system: COLO 205 colon
MALME-3M melanoma = test system: MALME-3M melanoma
NCI-H226 lung = test system: NCI-H226 lung
SR leukemia = test system: SR leukemia
RXF 393 renal = test system: RXF 393 renal
M14 melanoma = test system: M14 melanoma
DMS 273 small cell lung = test system: DMS 273 small cell lung
CAKI-1 renal = test system: CAKI-1 renal
A549 NSCLC = test system: A549 NSCLC
NCI-H23 lung = test system: NCI-H23 lung
SNB-78 CNS = test system: SNB-78 CNS
HL-60(TB) leukemia = test system: HL-60(TB) leukemia
NCI-H522 lung = test system: NCI-H522 lung
TK-10 renal = test system: TK-10 renal
HCT-116 colon = test system: HCT-116 colon
K-562 leukemia = test system: K-562 leukemia
DMS 114 small cell lung = test system: DMS 114 small cell lung
SK-MEL-2 melanoma = test system: SK-MEL-2 melanoma
HCC-2998 colon = test system: HCC-2998 colon
ACHN renal = test system: ACHN renal
M19-MEL melanoma = test system: M19-MEL melanoma
HOP-18 NSCLC = test system: HOP-18 NSCLC
SK-MEL-5 melanoma = test system: SK-MEL-5 melanoma
OVCAR-4 ovarian = test system: OVCAR-4 ovarian
KM12 colon = test system: KM12 colon
MDA-MB-231 breast = test system: MDA-MB-231 breast
LOX IMVI melanoma = test system: LOX IMVI melanoma
IGROV1 ovarian = test system: IGROV1 ovarian
EKVX NSCLC = test system: EKVX NSCLC
CCRF-CEM leukemia = test system: CCRF-CEM leukemia
OVCAR-8 ovarian = test system: OVCAR-8 ovarian
DU-145 prostate = test system: DU-145 prostate
MDA-N = test system: MDA-N
PC-3 prostate = test system: PC-3 prostate
SNB-75 CNS = test system: SNB-75 CNS
UACC-257 melanoma = test system: UACC-257 melanoma
UO-31 renal = test system: UO-31 renal
SF-539 CNS = test system: SF-539 CNS
HOP-92 NSCLC = test system: HOP-92 NSCLC
HOP-62 NSCLC = test system: HOP-62 NSCLC
OVCAR-3 ovarian = test system: OVCAR-3 ovarian
SF-295 CNS = test system: SF-295 CNS
BT-549 breast = test system: BT-549 breast
SK-OV-3 ovarian = test system: SK-OV-3 ovarian
A498 renal = test system: A498 renal
NCI-H460 lung = test system: NCI-H460 lung
MOLT-4 leukemia = test system: MOLT-4 leukemia
KM20L2 colon = test system: KM20L2 colon
SNB-19 CNS = test system: SNB-19 CNS
UACC-62 melanoma = test system: UACC-62 melanoma
HT29 colon = test system: HT29 colon
SN12C renal = test system: SN12C renal
OVCAR-5 ovarian = test system: OVCAR-5 ovarian
SF-268 CNS = test system: SF-268 CNS
DLD-1 colon = test system: DLD-1 colon
LXFL 529 NSCLC = test system: LXFL 529 NSCLC
U251 CNS = test system: U251 CNS
MCF7 breast = test system: MCF7 breast
786-0 renal = test system: 786-0 renal
SW-620 colon = test system: SW-620 colon
RPMI-8226 leukemia = test system: RPMI-8226 leukemia
T-47D breast = test system: T-47D breast
SK-MEL-28 melanoma = test system: SK-MEL-28 melanoma
HCT-15 colon = test system: HCT-15 colon
HS 578T breast = test system: HS 578T breast

## COc1cc2c(cc1OC)-c1cc(OC)c(OC)cc1[C@H]1CN3CCC[C@@]3(O)C=C21
COLO 205 colon
  TGI: < 0.0001 µM
MALME-3M melanoma
  TGI: < 0.0001 µM
NCI-H226 lung
  TGI: 0.00253 µM
SR leukemia
  TGI: < 0.0001 µM
RXF 393 renal
  TGI: 0.0126 µM
M14 melanoma
  TGI: 0.000105 µM
DMS 273 small cell lung
  TGI: 0.000208 µM
CAKI-1 renal
  TGI: 0.000403 µM
A549 NSCLC
  TGI: 0.106 µM and 0.414 µM
NCI-H23 lung
  TGI: 0.000267 µM
SNB-78 CNS
  TGI: 0.00164 µM
HL-60(TB) leukemia
  TGI: < 0.0001 µM
NCI-H522 lung
  TGI: < 0.0001 µM
TK-10 renal
  TGI: 0.161 µM
HCT-116 colon
  TGI: 0.0101 µM
K-562 leukemia
  TGI: 0.101 µM and 0.0521 µM
DMS 114 small cell lung
  TGI: 0.00117 µM
SK-MEL-2 melanoma
  TGI: < 0.0001 µM
HCC-2998 colon
  TGI: 0.0437 µM
ACHN renal
  TGI: 0.000787 µM
M19-MEL melanoma
  TGI: 0.000362 µM
HOP-18 NSCLC
  TGI: 0.000164 µM
SK-MEL-5 melanoma
  TGI: 0.000139 µM
OVCAR-4 ovarian
  TGI: 0.0032 µM and 0.0117 µM
KM12 colon
  TGI: 0.00316 µM and 0.0152 µM

## C=C[C@]1(C)CC(O)C2C(=C)C(=O)OC2[C@H]1C(=C)C=O (some centres undefined)
MDA-MB-231 breast
  TGI: 10.3 µM
COLO 205 colon
  TGI: 21.7 µM
MALME-3M melanoma
  TGI: 3.62 µM
LOX IMVI melanoma
  TGI: 4.6 µM
NCI-H226 lung
  TGI: 13.9 µM
IGROV1 ovarian
  TGI: 25 µM
EKVX NSCLC
  TGI: 33.7 µM
SR leukemia
  TGI: 20 µM
RXF 393 renal
  TGI: 4.83 µM
M14 melanoma
  TGI: 8.18 µM
CCRF-CEM leukemia
  TGI: 4.4 µM
OVCAR-8 ovarian
  TGI: 6.74 µM
CAKI-1 renal
  TGI: 13.5 µM
DU-145 prostate
  TGI: 27.1 µM
MDA-N
  TGI: 36.8 µM
PC-3 prostate
  TGI: 10 µM
SNB-75 CNS
  TGI: 47.9 µM
UACC-257 melanoma
  TGI: 4.31 µM
A549 NSCLC
  TGI: 43.6 µM
UO-31 renal
  TGI: 13.7 µM
NCI-H23 lung
  TGI: 7.62 µM
SF-539 CNS
  TGI: 10.5 µM
HOP-92 NSCLC
  TGI: 6.08 µM
HOP-62 NSCLC
  TGI: 34 µM
SNB-78 CNS
  TGI: 13.4 µM
HL-60(TB) leukemia
  TGI: 2.41 µM
OVCAR-3 ovarian
  TGI: 7.24 µM
SF-295 CNS
  TGI: 30.2 µM
BT-549 breast
  TGI: 15.8 µM
SK-OV-3 ovarian
  TGI: 66.2 µM
A498 renal
  TGI: 14.7 µM
NCI-H522 lung
  TGI: 2.35 µM
TK-10 renal
  TGI: 11.4 µM
NCI-H460 lung
  TGI: 31.8 µM
MOLT-4 leukemia
  TGI: 21.8 µM
KM20L2 colon
  TGI: 17.4 µM
HCT-116 colon
  TGI: 3.26 µM
SNB-19 CNS
  TGI: 44.1 µM
K-562 leukemia
  TGI: 8.52 µM
UACC-62 melanoma
  TGI: 3.83 µM
HT29 colon
  TGI: 7.05 µM
DMS 114 small cell lung
  TGI: 22.6 µM
SN12C renal
  TGI: 5.88 µM
SK-MEL-2 melanoma
  TGI: 13.4 µM
OVCAR-5 ovarian
  TGI: 24.8 µM
SF-268 CNS
  TGI: 8.21 µM
HCC-2998 colon
  TGI: 27.9 µM
ACHN renal
  TGI: 6.33 µM
DLD-1 colon
  TGI: 6.73 µM
LXFL 529 NSCLC
  TGI: 3.47 µM
U251 CNS
  TGI: 24.8 µM
MCF7 breast
  TGI: 3.18 µM
M19-MEL melanoma
  TGI: 7.98 µM
786-0 renal
  TGI: 4.47 µM
SW-620 colon
  TGI: 4.19 µM
HOP-18 NSCLC
  TGI: 15.1 µM
RPMI-8226 leukemia
  TGI: 5.94 µM
SK-MEL-5 melanoma
  TGI: 6.66 µM
T-47D breast
  TGI: 9.35 µM
SK-MEL-28 melanoma
  TGI: 4.37 µM
HCT-15 colon
  TGI: 7.22 µM
OVCAR-4 ovarian
  TGI: 17.7 µM
HS 578T breast
  TGI: > 100 µM
KM12 colon
  TGI: 12.5 µM
